The subject of series [1] is tonic extensor reflex on the rabbit gastrocnemius. Briefly: Muscle-relaxing action: tonic extensor reflex. It is filed as in vivo. To be noted: for ED50: Oryctolagus cuniculus, rabbit, intravenous, dose reducing muscle activity to half, read-out: Muscle relaxation ED 50%; for Muscle relaxation R.A. (relative activity): clozapine = 1.0. From the text: The measurement is based on quantifying the tonic extensor reflex on the rabbit gastrocnemius (Teschendorf et al., Arch. Pharmacol. exp. Path. 266 (1970), 462). The rabbit is fixed in a special apparatus which permits bending the paw at the talocalcanean joint in a defined and reproducible manner. As a result of this bending, a tonic extensor reflex is triggered in the […]. The electrical activity of the muscle during contraction is registered and the individual pulses are counted. The extension (duration 5 s) is repeated at intervals of one minute. After a constant number of pulses has been reached (constituting the control value), the test compound is administered intravenously. The number of pulses after administration is related to the previous value. For each dose investigated, 4-6 animals are used. The ED 50% is the dose which reduces the muscle activity to half, based on the initial value.

The subject of series [2] is orientation hypermotility. Put plainly: Sedative action: orientation hypermotility in mice. Conditions: for ED50: Mus musculus, 0.5 h, mice, oral, 30 min after administration, 50% decrease in orientation hypermotility vs placebo, read-out: Sedation ED 50%; for Sedation R.A. (relative activity): clozapine = 1.0. In kind it is in vivo, mouse (female NMRI). How it is done: 4-8 groups of 3 female NMRI mice are given the compound orally. The orientation hypermotility induced by a new environment is determined photoelectrically, 30 minutes after administration of the compound, for a period of 30 minutes. The ED50 is the dose which produces a decrease in orientation hypermotility by 50%, compared to control animals treated with placebo.

The nature of a further series: Acute toxicity. To be noted: mouse, in vivo, ip; mice, intraperitoneal; read-out: Toxicity LD 50. As for the experimental part:
Groups of 5-10 female NMRI mice are given the compounds intraperitoneally. The LD 50 is determined as the dose after which 50% of the treated animals die.

In a further series the test system is death from physostigmine. Briefly: Anticholinergic action: protection against physostigmine lethality. In kind it is in vivo, mouse (female NMRI). To be noted: mice, oral, 30 min before physostigmine 0.825 mg/kg s.c.; dose protecting 50% against death. As for the experimental part: Groups of 10 female NMRI mice are given physostigmine subcutaneously, at a lethal dose (0.825 mg/kg). The test substances are administered orally 30 minutes before the administration of physostigmine.
The ED 50% is determined as the dose of compound which protects 50% of the animals against death from physostigmine.

Series [3] relates to methamphetamine-antagonism (sniffing movements). Put plainly: Antimethamphetamine action: methamphetamine-induced sniffing movements. To be noted: for ED50: ip, 0.5 h, rat, intraperitoneal, 30 min before methamphetamine 2.5 mg/kg i.v., read-out: Antimethamphetamine action ED 50%; for Antimethamphetamine action R.A. (relative activity): clozapine = 1.00. In kind it is in vivo, rat. How it is done:
Methamphetamine (2.5 mg/kg administered intravenously) regularly causes the following symptoms in rats: motor restlessness, searching and sniffing movements, bristling fur and tremor (Janssen et al., Arzneim.-Forsch./DrugRes. 13 (1963), 205; Randrug et al., Psychopharmacologia 11 (1967), 300). The test substances are administered intraperitoneally, 30 minutes before the methamphetamine. The criterion of whether a compound has an effect is whether the sniffing movements remain absent over 5 minutes' observation after the injection of methamphetamine. That dose is determined as the mean inhibitory dose (ED 50%) by means of Probit analysis which prevents the symptom in half the number of animals. Number of animals examined per dose: 10.

In series [4] the test system is apomorphine-antagonism (mandibular movements). Put plainly: Antiapomorphine action: apomorphine-triggered mandibular movements. It is filed as in vivo, rat (female Sprague-Dawley). Conditions: for ED50: 1.5 h, read-out: Antiapomorphine action ED 50%; for Antiapomorphine action R.A. (relative activity): clozapine = 1.00. As for the experimental part: The test substances are administered orally 90 minutes before the apomorphine.

Setting [5] is: rat, oral, 90 min before apomorphine 1.5 mg/kg s.c.

Consider 7 compounds from patent US4376773A, “10-Substituted 5-cyanomethylene-10,11-dihydro-dibenzo-[a,d]-cycloheptenes, their preparation, and therapeutic agents containing these compounds” (BASF Aktiengesellschaft, priority 1980, dated 1983).

SMILES strings stand for the structures. Like-named read-outs stand apart in the source and are kept apart here. Where only a bound is given, the exact number is not on record here.

For `CCN1CCN(C2Cc3ccccc3C(=CC#N)c3ccccc32)CC1` (mixture of isomers) [Example 5, cis,trans-5-Cyanomethylene-10-(4-ethyl-piperazin-1-yl)-10,11-dihydro-dibenzo[a,d]-cycloheptene. 1/2 H2 O], in series [1], the ED50 is 0.1 mg/kg and the “Muscle relaxation R.A. (relative activity)” value was found to be 0.46. For the same compound, in series [2], the ED50 was determined as 6.7 mg/kg and the “Sedation R.A. (relative activity)” value is listed as 0.71. The LD50 in the series “Acute toxicity” is > 100 mg/kg. Further, in the series on death from physostigmine, the “ED50 protecting against physostigmine lethality” value (shortened to “ED50 protecting”) is > 46.4. In series [3], the ED50 came out at 13 mg/kg and the “Antimethamphetamine action R.A. (relative activity)” value amounted to 2.85.
As for `CN1CCN(C2Cc3cc(Cl)ccc3C(=CC#N)c3ccccc32)CC1` (mixture of isomers) [Example 4, cis,trans-2-Chloro-5-cyanomethylene-10-(4-methylpiperazin-1-yl)-10,11-dihydro-dibenzo[a,d]-cycloheptene], in series [1], the ED50 was determined as 0.02 mg/kg and the “Muscle relaxation R.A. (relative activity)” value is 2.30. Also, the “muscle-relaxing action compared with comparative substances” value in series [1] (in words, vs clozapine and perlapine) is given as “markedly surpasses those of the comparative substances”. In series [2], the ED50 came out at 5.5 mg/kg and the “Sedation R.A. (relative activity)” value worked out at 0.86. Further, in series [3], the ED50 is 4.6 mg/kg and the “Antimethamphetamine action R.A. (relative activity)” value came to 8.04.
Regarding `N#CC=C1c2ccccc2CC(N2CCN(CCO)CC2)c2ccccc21` (mixture of isomers) [Example 7, cis,trans-5-Cyanomethylene-10-(N-β-hydroxyethyl-piperazin-1-yl)-10,11-dihydro-dibenzo[a,d]-cycloheptene. 1/2 H2 O], in series [2], the ED50 stood at 10 mg/kg and the “Sedation R.A. (relative activity)” value came out at 0.47. Also, the LD50 in the series “Acute toxicity” was > 100 mg/kg. The “ED50 protecting” value with death from physostigmine is reported as > 100. In addition, in series [3], the ED50 turned out to be 30 mg/kg and the “Antimethamphetamine action R.A. (relative activity)” value is recorded as 1.23.
On to `C[N+]1([O-])CCN(C2Cc3ccccc3C(=CC#N)c3ccccc32)CC1` (mixture of isomers) [Example 8, cis, trans-5-Cyanomethylene-10-(4-methyl-4-oxy-piperazin-1-yl)-10,11-dihydro-dibenzo[a,d]-cycloheptene. 1/2 H2 O], for which the ED50 in series [4] (setting [5]) came to 7 mg/kg. Moreover, in series [4], the “Antiapomorphine action R.A. (relative activity)” value is reported as 1.14. For the same compound, in series [2], the ED50 turned out to be 15.2 mg/kg and the “Sedation R.A. (relative activity)” value was 0.31. The LD50 in “Acute toxicity” is > 100 mg/kg. In addition, the “ED50 protecting” value in the series with death from physostigmine is > 100. Moreover, in series [3], the ED50 came out at 39 mg/kg and the “Antimethamphetamine action R.A. (relative activity)” value is 0.95.
As for `CN1CCN(C2=Nc3cc(Cl)ccc3Nc3ccccc32)CC1` [Clozapine, clozapine, reference compound], in series [4] (setting [5]), the ED50 was found to be 8 mg/kg. Further, the “Antiapomorphine action R.A. (relative activity)” value in series [4] was 1.00. Further, in series [1], the ED50 turned out to be 0.046 mg/kg and the “Muscle relaxation R.A. (relative activity)” value is reported as 1.0. Besides, in series [2], the “Sedation R.A. (relative activity)” value worked out at 1.0. In addition, in series [3], the ED50 was 37 mg/kg and the “Antimethamphetamine action R.A. (relative activity)” value worked out at 1.00.
`CN1CCN(C2=Nc3ccccc3Cc3ccccc32)CC1` [Perlapine, perlapine, reference compound]: the ED50 in series [4] (Rattus norvegicus, po) was determined as 21.5 mg/kg. Moreover, the “Antiapomorphine action R.A. (relative activity)” value in series [4] was determined as 0.37. Moreover, in series [1], the ED50 was determined as 0.1 mg/kg and the “Muscle relaxation R.A. (relative activity)” value was found to be 0.46. Moreover, in series [2], the ED50 worked out at 2.01 mg/kg and the “Sedation R.A. (relative activity)” value came out at 2.36. For the same compound, in series [3], the ED50 came out at 31 mg/kg and the “Antimethamphetamine action R.A. (relative activity)” value came to 1.19.
Take `CN1CCN(C2Cc3ccccc3C(=CC#N)c3ccccc32)CC1` (mixture of isomers) [Example 1, cis,trans-5-Cyanomethylene-10-(4-methyl-piperazin-1-yl)-10,11-dihydro-dibenzo[a,d]-cycloheptene. 1/2 H2 O]: in series [1], the ED50 stood at 0.1 mg/kg and the “Muscle relaxation R.A. (relative activity)” value was 0.46. In addition, in series [2], the ED50 was 5.6 mg/kg and the “Sedation R.A. (relative activity)” value was 0.85. In the series “Acute toxicity”, the LD50 was > 100 mg/kg. The “ED50 protecting” value in the series on death from physostigmine is > 46.4. Also, in series [3], the ED50 stood at 5.4 mg/kg and the “Antimethamphetamine action R.A. (relative activity)” value stood at 6.85.
